Results reported in ChEMBL document CHEMBL2434929, “Thermoresponsive dendrimers based on oligoethylene glycols: design, synthesis and cytotoxic activity against MCF-7 breast cancer cells” (Eur J Med Chem, 2013).
≈ marks a conversion by molar mass, not a printed value.

Key:
MCF7 [1] = experiment: Cytotoxicity against human MCF7 cells assessed as viable cells at 0.1 to 1000 ug/ml after 72 hrs by SRB-U assay; assay type: functional
MCF7 [2] = experiment: Cytotoxicity against human MCF7 cells after 72 hrs by SRB-U assay; assay type: functional, cell-based; conditions: MCF7, 72 h

Structure (SMILES)	Activity (MCF7 [1])	IC50 (MCF7 [2])
CCOCCOCCOCCOc1cc(COCCOCCOCCOc2c(Br)c(Br)c(OCCOCCOCCOCc3cc(OCCOCCOCCOCC)c(OCCOCCOCCOCC)c(OCCOCCOCCOCC)c3)c(Br)c2Br)cc(OCCOCCOCCOCC)c1OCCOCCOCCOCC	5.1%	25.4 µg/mL (≈ 13.2 µM)
CCOCCOCCOCCOc1cc(COc2c(Br)c(Br)c(OCc3cc(OCCOCCOCCOCC)c(OCCOCCOCCOCC)c(OCCOCCOCCOCC)c3)c(Br)c2Br)cc(OCCOCCOCCOCC)c1OCCOCCOCCOCC	1.97%	1.07 µg/mL (≈ 0.643 µM)
CCOCCOCCOCCOc1c(Br)c(Br)c(OCCOCCOCCOCC)c(Br)c1Br	11.22%	13.8 µg/mL (≈ 18.5 µM)
